The text below walks through data of patent US20230102554A1 (GB002, INC., priority 2019, published 2023).

Test [1] has as its target T1, Human PDGFRα, cytoplasmic domain (GST-PDGFRα) (Homo sapiens, UniProt P16234).
T1 construct: made in house
Put plainly: Human PDGFRα biochemical inhibition assay (off-chip Mobility Shift Assay).

Test [2] has as its target T2, Human PDGFRβ, cytoplasmic domain (GST-PDGFRβ) (Homo sapiens, UniProt P09619).
T2 construct: made in house
Description: Human PDGFRβ biochemical inhibition assay (off-chip Mobility Shift Assay). In a few lines:
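GST-tagged cytoplasmic domain (aa 557-1106) from baculovirus was incubated 1 h at room temperature with compound, CSKtide, ATP at Km and Mg²⁺ in HEPES buffer, pH 7.5. Phosphorylated and unphosphorylated peptide were separated by off-chip mobility shift, and the product ratio P/(P+S) gave percent inhibition.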

Some results are limits rather than exact numbers.

T2 sequence (P09619 with tags, fused parts or gaps): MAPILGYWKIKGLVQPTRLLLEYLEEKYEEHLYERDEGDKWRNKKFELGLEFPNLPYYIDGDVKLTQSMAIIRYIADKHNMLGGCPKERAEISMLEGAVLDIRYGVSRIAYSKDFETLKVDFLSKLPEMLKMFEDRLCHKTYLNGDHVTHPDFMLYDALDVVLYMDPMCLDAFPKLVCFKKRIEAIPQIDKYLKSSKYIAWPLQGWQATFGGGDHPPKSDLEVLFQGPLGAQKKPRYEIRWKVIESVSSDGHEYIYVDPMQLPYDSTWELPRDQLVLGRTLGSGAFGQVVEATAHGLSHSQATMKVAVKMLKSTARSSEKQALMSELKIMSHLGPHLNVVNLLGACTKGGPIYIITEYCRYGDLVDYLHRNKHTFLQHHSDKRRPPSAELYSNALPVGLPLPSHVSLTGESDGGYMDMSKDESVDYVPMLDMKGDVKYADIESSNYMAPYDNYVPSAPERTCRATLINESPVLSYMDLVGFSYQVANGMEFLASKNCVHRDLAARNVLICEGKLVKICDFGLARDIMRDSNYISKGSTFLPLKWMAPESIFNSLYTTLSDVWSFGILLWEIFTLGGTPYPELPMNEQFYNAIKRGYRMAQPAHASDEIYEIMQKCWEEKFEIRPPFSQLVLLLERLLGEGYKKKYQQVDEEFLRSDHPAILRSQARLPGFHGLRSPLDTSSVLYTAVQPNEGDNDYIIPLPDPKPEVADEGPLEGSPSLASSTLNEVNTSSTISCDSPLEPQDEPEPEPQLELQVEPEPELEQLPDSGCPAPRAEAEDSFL
T1 sequence (P16234 550-1089 T674I): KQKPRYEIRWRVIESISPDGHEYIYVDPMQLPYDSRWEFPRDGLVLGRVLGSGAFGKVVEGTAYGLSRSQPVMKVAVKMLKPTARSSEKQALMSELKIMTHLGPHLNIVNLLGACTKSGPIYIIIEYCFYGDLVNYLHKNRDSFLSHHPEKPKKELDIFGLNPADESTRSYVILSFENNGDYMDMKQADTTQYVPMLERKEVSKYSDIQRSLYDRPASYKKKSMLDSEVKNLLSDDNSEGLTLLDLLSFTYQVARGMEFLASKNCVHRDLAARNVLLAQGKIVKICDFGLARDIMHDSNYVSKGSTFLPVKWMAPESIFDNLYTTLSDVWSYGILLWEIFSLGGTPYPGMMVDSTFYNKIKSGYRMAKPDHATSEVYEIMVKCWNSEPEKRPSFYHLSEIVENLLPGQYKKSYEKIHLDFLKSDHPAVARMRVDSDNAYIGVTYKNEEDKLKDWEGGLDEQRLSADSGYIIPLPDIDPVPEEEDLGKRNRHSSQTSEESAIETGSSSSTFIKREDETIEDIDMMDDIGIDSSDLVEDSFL

One may read the IC50 as the concentration that gives 50% inhibition. Turning to `CCn1cc2ncc(N[C@@H](C)c3cc(NC(=O)Cc4ccc(C5CC5)nc4)ccc3C)nc2n1` [Compound 665, (S)-2-(6-cyclopropylpyridin-3-yl)-N-(3-(1-((2-ethyl-2H-pyrazolo[3,4-b]pyrazin-6-yl)amino)ethyl)-4-methylphenyl) acetamide], the results for the IC50 in test [1] and in test [2] were less than 0.3 µM and not below 1 µM, respectively.

In the case of `CCn1cc2ncc(N[C@@H](C)c3cccc(NC(=O)c4ccc(C(=O)N5CC[C@@H](N)C5)c(Cl)c4)c3)nc2n1` [Compound 467, 4-((R)-3-aminopyrrolidine-1-carbonyl)-3-chloro-N-(3-((5)-1-((2-ethyl-2H-pyrazolo[3,4-b]pyrazin-6-yl)amino)ethyl)phenyl)benzamide], the results for the IC50 in test [1] and in test [2] were less than 0.3 µM and not below 1 µM, respectively.

Turning to `CCn1cc2ncc(N[C@@H](C)c3cccc(NC(=O)Nc4cc(C)ccn4)c3)nc2n1` [Compound 735, (S)-1-(3-(1-((2-ethyl-2H-pyrazolo[3,4-b]pyrazin-6-yl)amino)ethyl)phenyl)-3-(4-methylpyridin-2-yl)urea], the half-maximal inhibitory concentration (IC50) in test [1] and in test [2] was less than 0.3 µM throughout.

Turning to `Cc1n[nH]c2ncc(N[C@@H](C)c3cccc(NC(=O)c4cncc(Cl)c4)c3)nc12` [Compound 533, (S)-5-chloro-N-(3-(1-((3-methyl-1H-pyrazolo[3,4-b]pyrazin-5-yl)amino)ethyl)phenyl)nicotinamide], the IC50 in test [1] and in test [2] was less than 0.3 µM each time.

For the compound `CCn1cc2ncc(N[C@@H](C)c3cc(NC(=O)c4ccc(CN5CCN(C)CC5)c(C)c4)ccc3F)nc2n1` [Compound 457, (S)-N-(3-(1-((2-ethyl-2H-pvrazolo[3,4-b]pyrazin-6-yl)amino)ethyl)-4-fluorophenyl)-3 methyl-4-((4-methylpiperazin-1-yl)methyl)benzamide], the IC50 in test [1] and in test [2] was less than 0.3 µM in each case.

Consider `Cc1cc(C(=O)Nc2cccc([C@H](C)Nc3cnc4cnn(C)c4n3)c2)cnc1N1CCN(C)CC1` [Compound 195, (S)-5-methyl-N-(3-(1-((1-methyl-1H-pyrazolo[3,4-b]pyrazin-6-yl)amino)ethyl)phenyl)-6-(4-methylpiperazin-1-yl)nicotinamide], for which the IC50 in test [1] and in test [2] was less than 0.3 µM throughout.

For the compound `C[C@H](Nc1cnc2cnn(C)c2n1)c1cccc(NC(=O)c2cncc(CO)c2)c1` [Compound 106, (S)-5-(hydroxymethyl)-N-(3-(1-((1-methyl-1H-pyrazolo[3,4-b]pyrazin-6-yl)amino)ethyl)phenyl)nicotinamide], the half-inhibitory concentration (IC50) in test [1] was less than 0.3 µM; in test [2] it was 0.3 to 1 µM.

In the case of `Cc1cncc(C(=O)Nc2cccc([C@H](C)Nc3cnc4ccc(C(F)(F)F)cc4n3)c2)c1` [Compound 34, (S)-5-methyl-N-(3-(1-((7-(trifluoromethyl)quinoxalin-2-yl)amino)ethyl)phenyl) nicotinamide], the IC50 in test [1] is less than 0.3 µM; in test [2], 0.3 to 1 µM.

With `CC(C)n1cc(C(=O)Nc2cccc([C@H](C)Nc3cnc4cn[nH]c4n3)c2)cn1` [Compound 100, (S)-N-(3-(1-((1H-pyrazolo[3,4-b]pyrazin-6-yl)amino)ethyl)phenyl)-1-isopropyl-1H-pyrazole-4-carboxamide], the IC50 in test [1] and in test [2] was less than 0.3 µM each time.

With `COc1ccc(Cn2ccc3ncc(N[C@@H](C)c4cccc(NC(=O)c5cncc(C)c5)c4)cc32)cc1OC` [Compound 81, (S)-N-(3-(1-((1-(3,4-dimethoxybenzyl)-1H-pyrrolo [3,2-b]pyridin-6-yl)amino)ethyl)phenyl)-5-methylnicotinamide], the IC50 in test [1] and in test [2] was not below 1 µM each time.

For the compound `Cc1cncc(C(=O)Nc2cccc([C@H](C)Nc3cnc4[nH]nc(Cl)c4n3)c2)c1` [Compound 550, (S)-N-(3-(1-((3-chloro-1H-pyrazolo[3,4-b]pyrazin-5-yl)amino)ethyl)phenyl)-5-methylnicotinamide], the IC50 in test [1] and in test [2] was less than 0.3 µM each time.

In the case of `CCn1cc2ncc(N[C@@H](C)c3cccc(NC(=O)c4ccc(CN5CC6(COC6)C5)c(C)c4)c3)nc2n1` [Compound 414, (S)-4-((2-oxa-6-azaspiro[3.3]heptan-6-yl)methyl)-N-(3-(1-((2-ethyl-2H-pyrazolo[3,4-b]pyrazin-6-yl)amino)ethyl)phenyl)-3-methylbenzamide], the IC50 in test [1] and in test [2] was less than 0.3 µM throughout.

Take `C[C@H](Nc1cnc2cnn(C)c2n1)c1cccc(NC(=O)c2ccc(C3CC3)s2)c1` [Compound 136, (S)-5-cyclopropyl-N-(3-(1-((1-methyl-1H-pyrazolo[3,4-b]pyrazin-6-yl)amino)ethyl)phenyl)thiophene-2-carboxamide]: the IC50 in test [1] and in test [2] was less than 0.3 µM throughout.

Regarding `CCn1cc2ncc(N[C@@H](C)c3cc(NC(=O)Cc4ccc(C5CCC5)cn4)ccc3C)nc2n1` [Compound 669, (S)-2-(5-cyclobutylpyridin-2-yl)-N-(3-(1-((2-ethyl 2H-pyrazolo[3,4-b]pyrazin-6-yl)amino)ethyl)-4-methylphenyl) acetamide], the half-maximal inhibitory concentration (IC50) was less than 0.3 µM in test [1] and 0.3 to 1 µM in test [2].

For the compound `CCn1cc2ncc(N[C@@H](C)c3cc(NC(=O)Cc4cc(CN5CCCC5)c(C)cn4)ccc3C)nc2n1` [Compound 727, (S)-N-(3-(1-((2-ethyl-2H-pyrazolo[3,4-b]pyrazin-6-yl)amino)ethyl)-4-methylphenyl)-2-(5-methyl-4-(pyrrolidin-1-ylmethyl)pyridin-2-yl)acetamide], the IC50 in test [1] and in test [2] was not below 1 µM each time.

Turning to `CCn1cc2ncc(N[C@@H](C)c3cccc(NC(=O)c4ccc(C(F)F)s4)c3)nc2n1` [Compound 292, (S)-5-(difluoromethyl)-N-(3-(1-((2-ethyl-2H-pyrazolo[3,4-b]pyrazin-6-yl)amino)ethyl)phenyl)thiophene-2-carboxamide], the IC50 in test [1] and in test [2] was less than 0.3 µM each time.

Turning to `CCn1cc2ncc(N[C@@H](C)c3cccc(NC(=O)c4cnc(C#N)c(C)c4)c3)nc2n1` [Compound 289, (S)-6-cyano-N-(3-(1-((2-ethyl-2H-pyrazolo[3,4-b]pyrazin-6-yl)amino)ethyl)phenyl)-5-methylnicotinamide], the figures for the 50% inhibitory concentration (IC50) in test [1] and in test [2] were less than 0.3 µM and 0.3 to 1 µM, respectively.

As for `CCn1cc2ncc(N[C@@H](C)c3cccc(NC(=O)c4cnc(CN5CC6(COC6)C5)c(Cl)c4)c3)nc2n1` [Compound 503, (S)-6-((2-oxa-6-azaspiro[3.3]heptan-6-yl)methyl)-5-chloro-N-(3-(1-((2-ethyl-2H-pyrazolo[3,4-b]pyrazin-6-yl)amino)ethyl)phenyl)nicotinamide], the IC50 in test [1] and in test [2] was 0.3 to 1 µM each time.

Turning to `CCn1cc2ncc(N[C@@H](C)c3cc(NC(=O)c4ccc(CN5CCOCC5)c(Cl)c4)ccc3F)nc2n1` [Compound 427, (S)-3-chloro-N-(3-(1-((2-ethyl-2H-pyrazolo[3,4-b]pyrazin-6-yl)amino)ethyl)-4-fluorophenyl)-4-(morpholinomethyl)benzamide], the half-inhibitory concentration (IC50) in test [1] and in test [2] was less than 0.3 µM each time.

As for `CCn1cc2ncc(N[C@@H](C)c3cc(NC(=O)Cc4cccc(C)c4)ccc3F)nc2n1` [Compound 634, (S)-N-(3-(1-((2-ethyl-2H-pyrazolo[3,4-b]pyrazin-6-yl)amino)ethyl)-4-fluorophenyl)-2-(m-tolyl)acetamide], the IC50 in test [1] and in test [2] was less than 0.3 µM each time.

Regarding `CCn1cc2ncc(N[C@@H](C)c3cc(NC(=O)Cc4ccc(Cl)cn4)ccc3C)nc2n1` [Compound 657, (S)-2-(5-chloropyridin-2-yl)-N-(3-(1-((2-ethyl-2H-pyrazolo[3,4-b]pyrazin-6-yl)amino)ethyl)-4-methylphenyl)acetamide], the IC50 in test [1] and in test [2] was less than 0.3 µM in each case.

On to `Cc1cc(C(=O)Nc2cccc([C@H](C)Nc3cnc4cn[nH]c4n3)c2)cnc1C(F)(F)F` [Compound 98, (S)-N-(3-(1-((1H-pyrazolo[3,4-b]pyrazin-6-yl)amino)ethyl)phenyl)-5-methyl-6-(trifluoromethyl)nicotinamide], for which the IC50 in test [1] and in test [2] was less than 0.3 µM throughout.

On to `Cc1cc(C(=O)Nc2cccc([C@H](C)Nc3cnc4cnn(C)c4n3)c2)cnc1NC(C)C` [Compound 198, (S)-6-(isopropylamino)-5-methyl-N-(3-(1-((1-methyl-1H-pyrazolo[3,4-b]pyrazin-6-yl)amino)ethyl)phenyl) nicotinamide], for which the IC50 in test [1] and in test [2] was less than 0.3 µM throughout.

On to `Cc1cc(C(=O)Nc2cccc([C@H](C)Nc3cnc4cnn(C)c4n3)c2)cnc1C(C)C` [Compound 231, (S)-6-isopropyl-5-methyl-N-(3-(1-((1-methyl-1H-pyrazolo[3,4-6]pyrazin-6-yl)amino)ethyl)phenyl)nicotinamide], for which the IC50 in test [1] and in test [2] was less than 0.3 µM throughout.

With `Cc1ncc(C(=O)Nc2cccc([C@H](C)Nc3cnc4cnn(C)c4n3)c2)s1` [Compound 138, (S)-2-methyl-N-(3-(1-((1-methyl-1H-pyrazolo[3,4-b]pyrazin-6-yl)amino)ethyl)phenyl)thiazole-5-carboxamide], the IC50 in test [1] and in test [2] was less than 0.3 µM in each case.

For the compound `Cc1cncc(NC(=O)c2cccc([C@H](C)Nc3cnc4cnn(C)c4n3)c2)c1` [Compound 744, (S)-3-(1-((1-methyl-H-pyrazolo[3,4-b]pyrazin-6-yl)amino)ethyl)-N-(5-methylpyridin-3-yl)benzamide], the values for the IC50 in test [1] and in test [2] were less than 0.3 µM and not below 1 µM, respectively.

For `CCn1cc2ncc(N[C@@H](C)c3cc(NC(=O)Cc4cncc(F)c4)ccc3C)nc2n1` [Compound 659, (S)-N-(3-(1-((2-ethyl-2H-pyrazolo[3,4-b]pyrazin-6-yl)amino)ethyl)-4-methylphenyl)-2-(5-fluoropyridin-3-yl) acetamide], the concentration for half-maximal inhibition (IC50) in test [1] and in test [2] was less than 0.3 µM in each case.
